Data on 2 molecules can be found in US20220362399A1, “COMPOSITIONS AND ARTICLES COMPRISING (NANO)DIAMOND PARTICLES” (Debina Diagnostics, Inc., priority 2019, published 2022).

For test [1], the system named is HepG-2 cells. Nature of the test: MTT assay (redox state), HepG-2. To be noted: vincristine 50 μg/mL, 24 hours. In kind it is cell-based, human. The protocol:
(§1) The MTT assay was performed as a colorimetric assay using the Cell Proliferation Assay Kit (ThermoFisher Sci), composed of component A (3-(4,5-dimethylthiazol-2-yl)-2,5-diphenyltetrazolium bromide (MTT)) and component B (SDS (sodium dodecyl sulfate)) according to manufacturer's protocol. Briefly, HepG-2 cells and HUVEC were seeded in 96-well plates at a density of 1×10^4 cells per well in media described above for each cell type. Cells were treated or not with FDP-NV-BSA or vincristine (50 μg/mL) for 24 hours. Media (100 μL) were changed to phenol red-free DMEM (Dulbecco's Modified Eagle Medium) (ThermoFisher Sci), containing MTT component A. Plates were incubated for 4 hours, and cells lysed by adding equal volumes of 10% SDS (kit component B). Plates were incubated overnight and read using an ELISA plate reader ELx800 (BioTek, Winooski, Vt., USA) at 562 nm wavelength.

The test system of test [2] is HUVEC. Nature of the test: MTT assay (redox state), HUVEC. The conditions noted are these: vincristine 50 μg/mL, 24 hours. In kind it is cell-based, human. The protocol:
as §1

Test [3] concerns HUVEC. Nature of the test: Cell counting assay, HUVEC. In kind it is cell-based. The conditions noted are these: Homo sapiens, vincristine 50 μg/mL, 24 hours, read-out: proliferation, % of controls. The protocol: (§2) Cell counting was performed. The HepG-2 cell line was purchased from American Type Culture Collection (ATTC) (Manassas, Va., USA). Primary HUVEC were purchased from Lonza and used for experiments between the 5th-8th passages. Cells maintained (37° C. at 5% CO2 atmosphere) in their respective culture media as described above. HepG-2 and HUVEC were ‘seeded’ in 96-well plates (2×10^3 per well in 100 μL medium) and treated or not with FDP-NV-BSA for 24 hours. In each experiment, vincristine (50 μg/mL), a cell-cycle proliferation inhibitor, was added as a positive control. At 24 hrs, the medium was removed, the cells were fixed with 4% paraformaldehyde (PFA, ThermoFisher Sci) and the nuclei were stained using DAPI (4′,6-diamino-2-phenylindole, dihydrochloride, ThermoFisher Sci). The plates were analyzed in a fluorescence microscope (Olympus IX81, Olympus, Tokyo, Japan) by imaging 7 observation fields for each well using 100× magnification and DAPI (blue filter) for nuclei visualization, and TRITC (red filter) for FNDP-NV-BSA visualization. The number of viable cells in each field was determined by analysis of DAPI stained nuclei using ImageJ software (National Institutes of Health, Bethesda, Md., USA) with a digitally set-up cell counter.

The subject of test [4] is HepG-2 cells. Nature of the test: Cell counting assay, HepG-2. The conditions noted are these: Homo sapiens, HepG2; vincristine 50 μg/mL, 24 hours; read-out: proliferation, % of controls. It is filed as cell-based. The protocol:
as §2

Test [5] concerns CHOP and BiP. Nature of the test: ER-stress biomarkers (Western blot), HUVEC. It is filed as cell-based, human. The conditions noted are these: tunicamycin 25 μg/mL. The protocol:
(§3) HepG-2 cells and HUVEC were treated (or not) with 0.1 mg/mL FDP-NV-BSA as described above. Treatment with vincristine (200 μg/mL) was used as a positive control for apoptosis, and with tunicamycin (25 μg/mL) as a positive control for ER-stress. A rabbit polyclonal antibody against caspase 3 (Cell Sign. Techn), which recognizes both the cleaved and the non-cleaved protein, was used for apoptosis detection. Rabbit mAb (clone C50B12) against BiP and mouse mAb (clone L63F7) against Chop (both from Cell Sign. Techn) were used for the detection of ER-stress. Equal loading of proteins was verified by membrane stripping and re-probing with an anti-actin mouse monoclonal antibody (Sigma Inc.).

The test system of test [6] is CHOP and BiP. Nature of the test: ER-stress biomarkers (Western blot), HepG-2. To be noted: tunicamycin 25 μg/mL. It is filed as cell-based, human. The protocol: as §3

On to `CC[C@]1(O)C[C@H]2CN(CCc3c([nH]c4ccccc34)[C@@](C(=O)OC)(c3cc4c(cc3OC)N(C=O)[C@H]3[C@@](O)(C(=O)OC)[C@H](OC(C)=O)[C@]5(CC)C=CCN6CC[C@]43[C@@H]65)C2)C1` [vincristine], for which the “redox activity, % of normal controls” value with HepG-2 cells [1] and with HUVEC [2] was 25-30% in each case. Besides, the activity at 50 µg/mL worked out at 80% in the test with HUVEC [3] and 50% in the test on HepG-2 cells [4].
For tunicamycin, the ER-stress protein activation result in the test on CHOP and BiP [5] is reported as “sensitive”; in the test on CHOP and BiP [6], “sensitive”.
